Measured values from ChEMBL document CHEMBL4680113, “Tigliane Diterpenoids as a New Type of Antiadipogenic Agents Inhibit GRα-Dexras1 Axis in Adipocytes” (J Med Chem, 2019).
Calls of active or inactive are those of the source. No cut-off for these calls is given here.

Assays:
3T3-L1 [1] = assay: Lipid lowering activity in mouse 3T3-L1 cells assessed as reduction in adipogenic cocktail-induced triglyceride levels at 10 uM incubated for 6 days by GPO-POD assay; type: functional; conditions: for inhibition: time 6.0 day; for inhibition at 10 µM: 3T3-L1, 144 h, time 6 day
3T3-L1 [2] = assay: Toxicity in mouse 3T3-L1 cells assessed as reduction in cell viability at 10 uM incubated for 6 days by LDH release assay; type: cell-based; conditions: 3t3-l1, 144 h, time 6 day
3T3-L1 [3] = assay: Lipid lowering activity in mouse 3T3-L1 cells assessed as reduction in adipogenic cocktail-induced triglyceride levels at 1 to 10 uM by Oil-Red O staining; type: functional, cell-based; conditions: dose 1-10 µM
3T3-L1 [4] = assay: Inhibition of adipogenic cocktail-induced PPARgamma mRNA expression in mouse 3T3-L1 cells at 1 uM by RT-qPCR analysis; type: functional, cell-based
3T3-L1 [5] = assay: Lipid lowering activity in mouse 3T3-L1 cells assessed as reduction in adipogenic cocktail induced triglyceride levels at 1 uM incubated for 6 days by GPO-POD assay; type: functional, cell-based; conditions: time 6.0 day
3T3-L1 [6] = assay: Inhibition of adipogenic cocktail-induced GR-alpha nuclear translocation in mouse 3T3-L1 cells at 10 uM after 8 hrs by Western blot analysis; type: cell-based; conditions: filed as antagonist
3T3-L1 [7] = assay: Inhibition of GR-alpha in mouse 3T3-L1 cells assessed as reduction in adipogenic cocktail-induced Dexras1 mRNA expression at 10 uM incubated for 4 hrs by RT-qPCR analysis; type: cell-based; conditions: filed as antagonist
3T3-L1 [8] = assay: Activation of adipogenic cocktail-induced PPARgamma mRNA expression in mouse 3T3-L1 cells at 1 uM by RT-qPCR analysis; type: functional, cell-based
3T3-L1 [9] = assay: Activation of GR-alpha in mouse 3T3-L1 cells assessed as increase in adipogenic cocktail-induced Dexras1 mRNA expression at 10 uM incubated for 4 hrs by RT-qPCR analysis; type: cell-based; conditions: filed as agonist
3T3-L1 [10] = assay: Lipid increasing activity in mouse 3T3-L1 cells assessed as increase in adipogenic cocktail induced triglyceride levels at 1 uM incubated for 6 days by GPO-POD assay; type: functional, cell-based; conditions: time 6.0 day

Structure (SMILES) | inhibition (3T3-L1 [1]) | Activity (3T3-L1 [2]) | inhibition (3T3-L1 [3]) | inhibition at 10 µM (3T3-L1 [1]) [%] | other results
CCCC(=O)O[C@@H]1[C@@H]2[C@@H](OC(C)=O)[C@@]34CO[C@@](C)([C@H](OC(C)=O)[C@@]2(OC(C)=O)C[C@@H]1C)[C@@H]3[C@@H]1[C@@H](C[C@]1(C)OC(C)=O)[C@@H](OC(=O)c1ccccc1)C4=O | Active | – | – | – | –
CC(=O)O[C@@H]1[C@H]2[C@@H](OC(=O)c3cccnc3)[C@@H](C)C[C@]2(OC(C)=O)[C@@H](OC(C)=O)[C@]2(C)OC[C@]13C(=O)[C@@H](O)[C@@H]1C[C@](C)(OC(C)=O)[C@@H]1[C@@H]23 | inactive | – | – | – | –
CCC(=O)O[C@@H]1[C@@H]2[C@@H](OC(C)=O)[C@@]34CO[C@@](C)([C@H](OC(C)=O)[C@@]2(OC(C)=O)C[C@@H]1C)[C@@H]3[C@@H]1[C@@H](C[C@]1(C)OC(C)=O)[C@@H](OC(=O)C(C)C)C4=O | – | Non-Toxic | Active | > 60 | –
CC#C[C@]1(O)CC[C@H]2[C@@H]3CCC4=CC(=O)CCC4=C3[C@@H](c3ccc(N(C)C)cc3)C[C@@]21C | – | – | – | – | inhibition (3T3-L1 [4]): Active; inhibition (3T3-L1 [5]): Active; inhibition (3T3-L1 [6]): Active; inhibition (3T3-L1 [7]): Active
CC(=O)O[C@@H]1[C@@H]2[C@@H](OC(C)=O)[C@@]34CO[C@@](C)([C@H](OC(C)=O)[C@@]2(OC(C)=O)C[C@@H]1C)[C@@H]3[C@@H]1[C@@H](C[C@]1(C)OC(C)=O)[C@@H](OC(=O)c1ccccc1)C4=O | Active | – | – | – | –
CC(=O)O[C@@H]1[C@]2(C)OC[C@]3(C(=O)C=C[C@H](C(C)(C)OC(C)=O)[C@@H]23)[C@H](OC(C)=O)[C@H]2[C@@H](OC(=O)c3cccnc3)[C@@H](C)C[C@@]21OC(C)=O | inactive | – | – | – | –
CC(=O)OC[C@]12[C@H](OC(=O)c3ccccc3)[C@H]3[C@@H](OC(=O)c4cccnc4)[C@@H](C)C[C@]3(O)C(=O)[C@@](C)(OC(C)=O)[C@@H]1[C@@H]1[C@H](C[C@H]2OC(C)=O)C1(C)C | – | Non-Toxic | Active | > 60 | –
C[C@H]1C[C@@H]2[C@H]([C@@H](O)C[C@@]3(C)[C@H]2CC[C@]3(O)C(=O)CO)[C@@]2(C)C=CC(=O)C=C12 | – | – | – | – | Activity (3T3-L1 [8]): Active; Activity (3T3-L1 [9]): Active; Activity (3T3-L1 [10]): Active
CC(=O)O[C@@H]1[C@H]2[C@@H](OC(=O)c3cccnc3)[C@@H](C)C[C@]2(OC(C)=O)[C@@H](OC(C)=O)[C@]2(C)OC[C@]13C(=O)[C@H](O)[C@@H]1C[C@](C)(OC(C)=O)[C@@H]1[C@@H]23 | inactive | Non-Toxic | Active | – | –
CC(=O)O[C@@H]1[C@H]2[C@@H](OC(=O)c3cccnc3)[C@@H](C)C[C@]2(OC(C)=O)[C@@H](OC(C)=O)[C@]2(C)OC[C@]13C(=O)[C@H](OC(=O)C(C)C)[C@@H]1C[C@](C)(OC(C)=O)[C@@H]1[C@@H]23 | inactive | – | – | – | –
CCC(=O)O[C@@H]1[C@@H]2[C@@H](OC(=O)c3ccccc3)[C@@]3(COC(C)=O)[C@@H]([C@@H]4[C@H](C[C@H]3OC(C)=O)C4(C)C)[C@](C)(OC(C)=O)C(=O)[C@@]2(O)C[C@@H]1C | – | Non-Toxic | Active | > 60 | –
CCC(=O)O[C@@H]1[C@@H]2[C@@H](OC(C)=O)[C@@]34CO[C@@](C)([C@@H](OC(=O)C(C)CC)[C@@]2(OC(C)=O)C[C@@]1(C)OC(C)=O)[C@@H]3[C@@H](C(C)(C)OC(C)=O)C=C[C@H]4OC(C)=O (some centres not stated) | – | Non-Toxic | Active | > 60 | –
CC(=O)O[C@@H]1[C@H]2[C@@H](OC(C)=O)[C@](C)(OC(C)=O)C[C@]2(OC(C)=O)[C@H](OC(=O)c2ccccc2)[C@]2(C)OC[C@]13[C@H](OC(C)=O)C=C[C@H](C(C)(C)OC(C)=O)[C@@H]23 | – | Non-Toxic | Active | > 60 | –
CCC(=O)O[C@@H]1[C@@H]2[C@@H](OC(C)=O)[C@@]34CO[C@@](C)([C@H](OC(=O)c5ccccc5)[C@@]2(OC(C)=O)C[C@@H]1C)[C@@H]3[C@@H](C(C)(C)OC(C)=O)C=CC4=O | Active | – | – | – | –
CC(=O)O[C@@H]1[C@H]2[C@@H](OC(=O)c3cccnc3)[C@@H](C)C[C@]2(OC(C)=O)[C@@H](OC(C)=O)[C@]2(C)OC[C@]13C(=O)[C@H](OC(=O)c1ccccc1)[C@@H]1C[C@](C)(OC(C)=O)[C@@H]1[C@@H]23 | inactive | – | – | – | –
CCC(=O)O[C@@H]1[C@@H]2[C@@H](OC(C)=O)[C@@]34CO[C@@](C)([C@H](OC(C)=O)[C@@]2(OC(C)=O)C[C@@H]1C)[C@@H]3[C@@H]1[C@@H](C[C@]1(C)OC(C)=O)[C@@H](OC(=O)C(C)CC)C4=O (some centres not stated) | inactive | – | – | – | –
CC1=C[C@@H]2[C@H](C1=O)[C@H](O)C(C)=C[C@H]1[C@@H]3C(C)(C)[C@]3(OC(=O)C(C)C)[C@H](OC(=O)c3ccccc3)[C@@H](C)[C@]21O [EUPHODENDRIANE A] | – | Non-Toxic | Active | > 50 | –
CC(=O)O[C@@H]1[C@@H]2[C@@H](OC(C)=O)[C@@]34CO[C@@](C)([C@H](OC(C)=O)[C@@]2(OC(C)=O)C[C@@H]1C)[C@@H]3[C@@H]1[C@@H](C[C@]1(C)OC(C)=O)[C@H](O)C4=O | – | Non-Toxic | Active | > 60 | –
CCC(=O)O[C@@H]1[C@@H]2[C@@H](OC(C)=O)[C@@]34CO[C@@](C)([C@H](OC(C)=O)[C@@]2(OC(C)=O)C[C@@H]1C)[C@@H]3[C@@H]1[C@@H](C[C@]1(C)OC(C)=O)[C@@H](O)C4=O | Active | Non-Toxic | Active | – | –
CCC(=O)O[C@@H]1[C@@H]2[C@@H](OC(C)=O)[C@@]34CO[C@@](C)([C@H](OC(C)=O)[C@@]2(OC(C)=O)C[C@@H]1C)[C@@H]3[C@@H]1[C@@H](C[C@]1(C)OC(C)=O)[C@@H](OC(=O)c1ccccc1)C4=O | Active | Non-Toxic | Active | – | –
CCCC(=O)O[C@@H]1[C@@H]2[C@@H](OC(C)=O)[C@@]34CO[C@@](C)([C@H](OC(C)=O)[C@@]2(OC(C)=O)C[C@@H]1C)[C@@H]3[C@@H](C(C)(C)OC(C)=O)C=C[C@H]4OC(C)=O | – | Non-Toxic | Active | > 60 | –
CCC(=O)O[C@@H]1[C@@H]2[C@@H](OC(C)=O)[C@@]34CO[C@@](C)([C@H](OC(C)=O)[C@@]2(O)C[C@@H]1C)[C@@H]3[C@@H]1[C@@H](C[C@]1(C)OC(C)=O)[C@@H](OC(=O)c1ccccc1)C4=O | inactive | – | – | – | –
CC(=O)O[C@@H]1[C@H]2[C@@H](OC(C)=O)[C@](C)(O)C[C@]2(OC(C)=O)[C@H](OC(=O)c2ccccc2)[C@]2(C)OC[C@]13[C@H](OC(C)=O)C=C[C@H](C(C)(C)OC(C)=O)[C@@H]23 | – | Non-Toxic | Active | > 60 | –
CC(=O)O[C@@H]1[C@@H]2[C@@H](OC(C)=O)[C@@]34CO[C@@](C)([C@H](OC(C)=O)[C@@]2(OC(C)=O)C[C@@H]1C)[C@@H]3[C@@H]1[C@@H](C[C@]1(C)OC(C)=O)[C@@H](OC(=O)C(C)C)C4=O | inactive | – | – | – | –
CC(=O)O[C@@H]1[C@@H]2[C@@H](OC(C)=O)[C@@]34CO[C@@](C)([C@H](OC(=O)c5ccccc5)[C@@]2(O)C[C@@H]1C)[C@@H]3[C@@H]1[C@@H](C[C@]1(C)OC(C)=O)[C@@H](OC(=O)c1ccccc1)C4=O | inactive | – | – | – | –
CC1=C[C@H]2[C@@H]3C(C)(C)[C@]3(OC(=O)C(C)C)[C@H](OC(=O)c3ccccc3)[C@@H](C)[C@]2(O)[C@@H]2C=C(C)C(=O)C2=C1 | – | Non-Toxic | Active | > 50 | –
